Data reported in patent US9340590B2 (priority 2011, dated 2016).
Where two headings read alike, the source gives them in different places. Positions of bridges follow the written chain, without caps; N, C: chain ends. Non-standard residues stand in square brackets, D forms with d. Residues, ends and D or L forms follow the SMILES beside them. Tle = CC(C)(C)[C@H](N)C(=O)O

Key:
Test in all cases: cell-based
[1] = molecular target: hNav1.7 (Homo sapiens, UniProt Q15858); format: cell-based; conditions: IonWorks Quattro
Sequence of hNav1.7 (Q15858 whole entry, looked up): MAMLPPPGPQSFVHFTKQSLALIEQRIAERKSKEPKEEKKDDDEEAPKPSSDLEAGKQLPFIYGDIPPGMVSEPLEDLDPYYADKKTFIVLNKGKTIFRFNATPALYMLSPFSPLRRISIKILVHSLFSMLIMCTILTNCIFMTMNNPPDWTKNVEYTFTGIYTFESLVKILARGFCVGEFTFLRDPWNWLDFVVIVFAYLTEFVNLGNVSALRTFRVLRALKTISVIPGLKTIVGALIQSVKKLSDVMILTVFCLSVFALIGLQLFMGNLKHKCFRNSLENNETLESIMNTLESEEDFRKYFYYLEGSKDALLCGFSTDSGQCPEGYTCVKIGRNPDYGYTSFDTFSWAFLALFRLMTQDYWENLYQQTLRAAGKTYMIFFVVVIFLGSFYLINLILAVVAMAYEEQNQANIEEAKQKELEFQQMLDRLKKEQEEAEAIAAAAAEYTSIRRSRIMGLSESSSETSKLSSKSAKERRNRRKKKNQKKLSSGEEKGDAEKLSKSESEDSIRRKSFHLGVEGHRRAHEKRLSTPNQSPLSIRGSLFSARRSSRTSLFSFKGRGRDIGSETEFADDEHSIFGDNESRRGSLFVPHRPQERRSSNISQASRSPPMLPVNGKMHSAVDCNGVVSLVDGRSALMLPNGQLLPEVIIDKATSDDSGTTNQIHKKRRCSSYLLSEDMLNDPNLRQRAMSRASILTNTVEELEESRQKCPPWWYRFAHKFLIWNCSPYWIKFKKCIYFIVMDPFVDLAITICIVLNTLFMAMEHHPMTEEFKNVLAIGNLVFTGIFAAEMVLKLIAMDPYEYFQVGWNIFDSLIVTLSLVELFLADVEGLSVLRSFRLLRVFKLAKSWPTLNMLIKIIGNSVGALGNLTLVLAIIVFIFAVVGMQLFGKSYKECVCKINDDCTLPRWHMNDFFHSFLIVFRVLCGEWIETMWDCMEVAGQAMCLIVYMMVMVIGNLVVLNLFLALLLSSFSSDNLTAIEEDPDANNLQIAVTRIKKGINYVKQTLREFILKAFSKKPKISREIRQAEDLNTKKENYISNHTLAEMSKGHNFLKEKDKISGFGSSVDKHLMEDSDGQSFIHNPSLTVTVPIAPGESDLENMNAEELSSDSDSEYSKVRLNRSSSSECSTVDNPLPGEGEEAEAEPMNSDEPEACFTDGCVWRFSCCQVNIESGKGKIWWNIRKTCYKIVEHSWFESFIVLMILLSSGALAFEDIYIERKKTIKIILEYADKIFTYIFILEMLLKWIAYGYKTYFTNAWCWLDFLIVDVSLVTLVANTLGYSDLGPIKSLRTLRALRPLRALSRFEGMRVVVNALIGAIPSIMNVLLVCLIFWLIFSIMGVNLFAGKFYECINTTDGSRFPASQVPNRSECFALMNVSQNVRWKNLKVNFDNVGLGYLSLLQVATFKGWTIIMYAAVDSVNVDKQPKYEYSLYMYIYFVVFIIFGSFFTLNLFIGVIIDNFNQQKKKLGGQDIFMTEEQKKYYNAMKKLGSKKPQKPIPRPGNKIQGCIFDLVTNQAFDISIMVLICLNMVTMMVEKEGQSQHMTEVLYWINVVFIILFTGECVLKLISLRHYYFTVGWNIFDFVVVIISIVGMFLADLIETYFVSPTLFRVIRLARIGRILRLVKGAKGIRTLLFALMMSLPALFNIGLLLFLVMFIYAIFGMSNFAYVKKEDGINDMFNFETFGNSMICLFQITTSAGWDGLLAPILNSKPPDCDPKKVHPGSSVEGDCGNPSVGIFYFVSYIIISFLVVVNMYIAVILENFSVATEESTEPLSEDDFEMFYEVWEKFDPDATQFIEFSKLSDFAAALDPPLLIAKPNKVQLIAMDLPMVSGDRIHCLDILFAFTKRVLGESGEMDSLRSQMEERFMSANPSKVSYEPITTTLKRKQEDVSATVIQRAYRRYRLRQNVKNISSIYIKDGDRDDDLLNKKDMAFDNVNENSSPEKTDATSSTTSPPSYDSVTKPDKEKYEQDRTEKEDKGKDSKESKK

[2] = molecular target: hNav1.5 (Homo sapiens, UniProt Q14524); conditions: IonWorks Quattro, read-out: IWQ Use Nav1.5
Sequence of hNav1.5 (Q14524 whole entry, looked up): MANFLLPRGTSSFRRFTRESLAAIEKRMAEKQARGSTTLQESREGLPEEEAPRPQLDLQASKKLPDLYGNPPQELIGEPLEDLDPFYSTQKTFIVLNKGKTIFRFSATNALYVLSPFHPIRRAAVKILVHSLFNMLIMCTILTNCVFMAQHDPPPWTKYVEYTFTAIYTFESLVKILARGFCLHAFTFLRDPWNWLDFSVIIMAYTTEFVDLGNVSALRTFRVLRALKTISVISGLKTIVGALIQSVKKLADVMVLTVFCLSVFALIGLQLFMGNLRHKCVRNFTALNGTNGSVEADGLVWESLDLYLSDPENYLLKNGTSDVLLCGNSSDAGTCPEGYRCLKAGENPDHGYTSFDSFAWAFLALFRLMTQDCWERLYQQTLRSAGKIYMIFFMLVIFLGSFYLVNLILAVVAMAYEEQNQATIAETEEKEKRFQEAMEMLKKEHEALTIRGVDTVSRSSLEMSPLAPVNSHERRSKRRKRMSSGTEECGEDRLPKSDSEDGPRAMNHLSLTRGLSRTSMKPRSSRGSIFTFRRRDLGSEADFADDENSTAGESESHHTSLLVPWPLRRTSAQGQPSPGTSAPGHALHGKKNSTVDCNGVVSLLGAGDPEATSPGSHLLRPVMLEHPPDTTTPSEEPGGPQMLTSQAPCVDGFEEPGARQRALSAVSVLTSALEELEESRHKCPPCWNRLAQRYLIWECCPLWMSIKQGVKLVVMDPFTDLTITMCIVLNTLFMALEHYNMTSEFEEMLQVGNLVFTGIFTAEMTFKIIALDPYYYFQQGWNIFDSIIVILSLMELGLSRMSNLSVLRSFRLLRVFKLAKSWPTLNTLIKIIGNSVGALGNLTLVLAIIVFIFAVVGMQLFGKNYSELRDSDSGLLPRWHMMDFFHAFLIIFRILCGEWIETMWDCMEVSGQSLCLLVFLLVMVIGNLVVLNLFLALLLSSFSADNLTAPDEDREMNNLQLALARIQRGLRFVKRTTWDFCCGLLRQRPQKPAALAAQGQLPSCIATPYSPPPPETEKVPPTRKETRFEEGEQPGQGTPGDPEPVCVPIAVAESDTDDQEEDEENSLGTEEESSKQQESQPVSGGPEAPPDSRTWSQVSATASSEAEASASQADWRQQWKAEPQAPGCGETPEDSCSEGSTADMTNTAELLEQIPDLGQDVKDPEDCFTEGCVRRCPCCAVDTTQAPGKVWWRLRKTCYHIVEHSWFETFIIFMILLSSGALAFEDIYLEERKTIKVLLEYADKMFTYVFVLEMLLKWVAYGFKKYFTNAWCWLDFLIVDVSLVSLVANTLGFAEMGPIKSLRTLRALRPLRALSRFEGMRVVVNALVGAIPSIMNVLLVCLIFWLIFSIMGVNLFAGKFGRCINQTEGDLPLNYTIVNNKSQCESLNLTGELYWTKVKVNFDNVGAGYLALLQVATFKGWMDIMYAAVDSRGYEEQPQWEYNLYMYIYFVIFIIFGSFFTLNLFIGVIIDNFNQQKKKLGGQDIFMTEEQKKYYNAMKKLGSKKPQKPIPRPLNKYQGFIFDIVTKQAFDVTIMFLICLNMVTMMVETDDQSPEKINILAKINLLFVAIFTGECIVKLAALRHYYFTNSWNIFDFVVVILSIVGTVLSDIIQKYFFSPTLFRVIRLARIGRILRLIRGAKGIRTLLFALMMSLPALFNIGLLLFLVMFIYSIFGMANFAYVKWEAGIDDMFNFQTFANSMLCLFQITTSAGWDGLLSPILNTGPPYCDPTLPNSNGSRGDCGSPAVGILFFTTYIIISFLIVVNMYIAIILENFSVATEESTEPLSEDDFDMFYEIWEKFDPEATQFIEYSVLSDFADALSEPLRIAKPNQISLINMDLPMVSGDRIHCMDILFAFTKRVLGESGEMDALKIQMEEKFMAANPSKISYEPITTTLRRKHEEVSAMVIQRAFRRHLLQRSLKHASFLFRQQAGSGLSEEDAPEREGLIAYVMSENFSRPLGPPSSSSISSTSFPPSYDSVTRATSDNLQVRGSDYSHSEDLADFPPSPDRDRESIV

[3] = molecular target: hNav1.3 (Homo sapiens, UniProt Q9NY46); conditions: IonWorks Quattro, read-out: IWQ Use Nav1.3
[4] = use-dependent protocol, hNav1.7, read-out: IWQ Use Nav1.7
[5] = use-dependent protocol, hNav1.5
[6] = use-dependent protocol, hNav1.3
[7] = use-dependent block, hNav1.7, read-out: IWQ Use Nav1.7

CSCC[C@@H]1NC(=O)[C@H](C(C)C)NC(=O)CNC(=O)[C@H](CC(C)C)NC(=O)[C@@H](NC(=O)[C@@H](N)CC(=O)O)CSSC[C@@H]2NC(=O)[C@@H]3CSSC[C@@H](C(=O)N[C@@H](CCCCN)C(=O)N[C@@H](Cc4ccc(O)cc4)C(=O)N[C@H](C(=O)N[C@@H](Cc4ccccc4)C(N)=O)C(C)C)NC(=O)[C@H](Cc4c[nH]c5ccccc45)NC(=O)[C@H](CCCCN)NC(=O)[C@H](Cc4c[nH]cn4)NC(=O)[C@H]([C@@H](C)O)NC(=O)[C@H](CCCNC(=N)N)NC(=O)[C@H](CO)NC(=O)[C@H](CSSC[C@H](NC(=O)[C@H](CCCCN)NC(=O)[C@H](CCCNC(=N)N)NC1=O)C(=O)N[C@@H](CC(=O)O)C(=O)N1CCC[C@H]1C(=O)N[C@@H](CC(=O)O)C(=O)N[C@@H](CC(N)=O)C(=O)N[C@@H](CC(=O)O)C(=O)N[C@@H](CCCCN)C(=O)N3)NC(=O)[C@H](C(C)C)NC(=O)[C@H](CC(C)C)NC(=O)[C@H](CC(N)=O)NC(=O)[C@@H]1CCCN1C(=O)[C@H](CCCNC(=N)N)NC2=O [compound 710] (H-DCLGVMRKCDPDNDKCCRPNLVCSRTHKWCKYVF-NH2; disulfide 2-17, 9-23, 16-30)
IC50 [1, 4]: 690 nM | IC50 [2, 5]: 35000 nM | IC50 [3, 6]: 1300 nM

CC[C@H](C)[C@@H]1NC(=O)[C@@H]2CSSC[C@@H]3NC(=O)[C@H](C(C)C)NC(=O)[C@H](CC(C)C)NC(=O)[C@H](CC(N)=O)NC(=O)[C@@H]4CCCN4C(=O)[C@H](CCCNC(=N)N)NC(=O)[C@H](CSSC[C@H](NC(=O)[C@@H](N)CC(=O)O)C(=O)N[C@@H](CC(C)C)C(=O)NCC(=O)N[C@@H](Cc4ccc(C(=O)c5ccccc5)cc4)C(=O)N[C@@H](CCSC)C(=O)N[C@@H](CCCNC(=N)N)C(=O)N[C@@H](CCCCN)C(=O)N2)NC(=O)[C@H](CSSC[C@@H](C(=O)N[C@@H](CCCCN)C(=O)N[C@@H](Cc2ccc(O)cc2)C(=O)N[C@H](C(=O)N[C@@H](Cc2ccccc2)C(N)=O)C(C)C)NC(=O)[C@H](Cc2c[nH]c4ccccc24)NC(=O)[C@H](CCCCN)NC(=O)[C@H](Cc2c[nH]cn2)NC(=O)[C@H]([C@@H](C)O)NC(=O)[C@H](CCCNC(=N)N)NC(=O)[C@H](CO)NC3=O)NC(=O)[C@H](CCCCN)NC(=O)[C@H](CC(=O)O)NC(=O)[C@H](CC(N)=O)NC(=O)[C@H](CC(=O)O)NC(=O)[C@@H]2CCCN2C1=O [compound 685]
IC50 [1, 4]: 680 nM | IC50 [2, 5]: > 5000 nM | IC50 [3, 6]: 150 nM

CC[C@H](C)[C@@H]1NC(=O)[C@@H]2CSSC[C@@H]3NC(=O)[C@H](C(C)C)NC(=O)[C@H](CC(C)C)NC(=O)[C@H](CC(N)=O)NC(=O)[C@@H]4CCCN4C(=O)[C@H](CCCNC(=N)N)NC(=O)[C@H](CSSC[C@H](NC(=O)[C@@H](N)CC(=O)O)C(=O)N[C@@H](CC(C)C)C(=O)NCC(=O)N[C@@H](Cc4ccccc4)C(=O)N[C@@H](CCSC)C(=O)N[C@@H](CCCNC(=N)N)C(=O)N[C@@H](CCCCN)C(=O)N2)NC(=O)[C@H](CSSC[C@@H](C(=O)N[C@@H](CCCCN)C(=O)N[C@@H](Cc2ccc(O)cc2)C(=O)N[C@H](C(=O)N[C@@H](Cc2ccccc2)C(N)=O)C(C)C)NC(=O)[C@H](CCCNC(=N)N)NC(=O)[C@H](CCCCN)NC(=O)[C@H](Cc2cnc[nH]2)NC(=O)[C@H]([C@@H](C)O)NC(=O)[C@H](CCCNC(=N)N)NC(=O)[C@H](CO)NC3=O)NC(=O)[C@H](CCCCN)NC(=O)[C@H](CC(=O)O)NC(=O)[C@H](CC(N)=O)NC(=O)[C@H](CC(=O)O)NC(=O)[C@@H]2CCCN2C1=O [compound 104] (H-DCLGFMRKCIPDNDKCCRPNLVCSRTHKRCKYVF-NH2; disulfide 2-17, 9-23, 16-30)
IC50 ([1]; Table 24, use, […], read-out: IWQ Use Nav1.7): 9730 nM | IC50 ([2]; Table 24, use, […]): 18800 nM | IC50 ([3]; Table 24, use, […]): 11400 nM

CC[C@H](C)[C@@H]1NC(=O)[C@@H]2CSSC[C@@H]3NC(=O)[C@H](C(C)C)NC(=O)[C@H](CC(C)C)NC(=O)[C@H](CC(N)=O)NC(=O)[C@@H]4CCCN4C(=O)[C@H](CCCNC(=N)N)NC(=O)[C@H](CSSC[C@H](NC(=O)[C@@H](N)CC(=O)O)C(=O)N[C@@H](CC(C)C)C(=O)NCC(=O)N[C@@H](C)C(=O)N[C@@H](Cc4ccccc4)C(=O)N[C@@H](CCCNC(=N)N)C(=O)N[C@@H](CCCCN)C(=O)N2)NC(=O)[C@H](CSSC[C@@H](C(=O)N[C@@H](CCCCN)C(=O)N[C@@H](Cc2ccc(O)cc2)C(=O)N[C@H](C(=O)N[C@@H](Cc2ccccc2)C(=O)O)C(C)C)NC(=O)[C@H](Cc2c[nH]c4ccccc24)NC(=O)[C@H](CCSC)NC(=O)[C@H](Cc2c[nH]cn2)NC(=O)[C@H]([C@@H](C)O)NC(=O)[C@H](CCCNC(=N)N)NC(=O)[C@H](CO)NC3=O)NC(=O)[C@H](CCCCN)NC(=O)[C@H](CC(=O)O)NC(=O)[C@H](CC(N)=O)NC(=O)[C@H](CC(=O)O)NC(=O)[C@@H]2CCCN2C1=O [compound 831] (H-DCLGAFRKCIPDNDKCCRPNLVCSRTHMWCKYVF-OH; disulfide 2-17, 9-23, 16-30)
IC50 [1, 7]: > 5000 nM | IC50 ([2]; use-dependent block, hNav1.5): > 5000 nM | IC50 ([3]; use-dependent block, hNav1.3): 1600 nM

CC[C@H](C)[C@@H]1NC(=O)[C@@H]2CSSC[C@@H]3NC(=O)[C@H](C(C)C)NC(=O)[C@H](CC(C)C)NC(=O)[C@H](CC(N)=O)NC(=O)[C@@H]4CCCN4C(=O)[C@H](CCCNC(=N)N)NC(=O)[C@H](CSSC[C@H](NC(=O)[C@@H](N)CC(=O)O)C(=O)N[C@@H](CC(C)C)C(=O)NCC(=O)N[C@@H](C)C(=O)N[C@@H](CC(C)C)C(=O)N[C@@H](CCCNC(=N)N)C(=O)N[C@@H](CCCCN)C(=O)N2)NC(=O)[C@H](CSSC[C@@H](C(=O)N[C@@H](CCCCN)C(=O)N[C@@H](Cc2ccc(O)cc2)C(=O)N[C@H](C(=O)N[C@@H](Cc2ccccc2)C(=O)O)C(C)C)NC(=O)[C@H](Cc2c[nH]c4ccccc24)NC(=O)[C@H](CCCNC(=N)N)NC(=O)[C@H](Cc2c[nH]cn2)NC(=O)[C@H]([C@@H](C)O)NC(=O)[C@H](CCCNC(=N)N)NC(=O)[C@H](CO)NC3=O)NC(=O)[C@H](CCCCN)NC(=O)[C@H](CC(=O)O)NC(=O)[C@H](CCSC)NC(=O)[C@H](CC(=O)O)NC(=O)[C@@H]2CCCN2C1=O [compound 868] (H-DCLGALRKCIPDMDKCCRPNLVCSRTHRWCKYVF-OH; disulfide 2-17, 9-23, 16-30)
IC50 [1, 7]: > 5000 nM | IC50 ([2]; use-dependent block, hNav1.5): > 5000 nM | IC50 ([3]; use-dependent block, hNav1.3): > 5000 nM

CC[C@H](C)[C@@H]1NC(=O)[C@@H]2CSSC[C@@H]3NC(=O)[C@H](C(C)C)NC(=O)[C@H](CC(C)C)NC(=O)[C@H](CC(N)=O)NC(=O)[C@@H]4CCCN4C(=O)[C@H](CCCNC(=N)N)NC(=O)[C@H](CSSC[C@H](NC(=O)[C@@H](N)CC(=O)O)C(=O)N[C@@H](CC(C)C)C(=O)NCC(=O)N[C@@H](C(C)(C)C)C(=O)N[C@@H](Cc4ccccc4)C(=O)N[C@@H](CCCNC(=N)N)C(=O)N[C@@H](CCCCN)C(=O)N2)NC(=O)[C@H](CSSC[C@@H](C(=O)N[C@@H](CCCCN)C(=O)N[C@@H](Cc2ccc(O)cc2)C(=O)N[C@H](C(=O)N[C@@H](Cc2ccccc2)C(N)=O)C(C)C)NC(=O)[C@H](Cc2c[nH]c4ccccc24)NC(=O)[C@H](CCCCN)NC(=O)[C@H](Cc2c[nH]cn2)NC(=O)[C@H]([C@@H](C)O)NC(=O)[C@H](CCCNC(=N)N)NC(=O)[C@H](CO)NC3=O)NC(=O)[C@H](CCCCN)NC(=O)[C@H](CC(=O)O)NC(=O)[C@H](CC(N)=O)NC(=O)[C@H](CC(=O)O)NC(=O)[C@@H]2CCCN2C1=O [compound 609] (H-DCLG[Tle]FRKCIPDNDKCCRPNLVCSRTHKWCKYVF-NH2; disulfide 2-17, 9-23, 16-30)
IC50 [1, 7]: 81 nM | IC50 ([2]; use-dependent block, hNav1.5): 6700 nM | IC50 ([3]; use-dependent block, hNav1.3): 260 nM

CC[C@H](C)[C@@H]1NC(=O)[C@@H]2CSSC[C@@H]3NC(=O)[C@H](C(C)C)NC(=O)[C@H](CC(C)C)NC(=O)[C@H](CC(N)=O)NC(=O)[C@@H]4CCCN4C(=O)[C@H](CCCNC(=N)N)NC(=O)[C@H](CSSC[C@H](NC(=O)[C@@H](N)CC(=O)O)C(=O)N[C@@H](CC(C)C)C(=O)NCC(=O)N[C@@H](C)C(=O)N[C@@H](Cc4ccccc4)C(=O)N[C@@H](CCCNC(=N)N)C(=O)N[C@@H](CCCCN)C(=O)N2)NC(=O)[C@H](CSSC[C@@H](C(=O)N[C@@H](CCCCN)C(=O)N[C@@H](Cc2ccc(O)cc2)C(=O)N[C@H](C(=O)N[C@@H](Cc2ccccc2)C(=O)O)C(C)C)NC(=O)[C@H](Cc2c[nH]c4ccccc24)NC(=O)[C@H](CCCNC(=N)N)NC(=O)[C@H](Cc2c[nH]cn2)NC(=O)[C@H]([C@@H](C)O)NC(=O)[C@H](CCCNC(=N)N)NC(=O)[C@H](CO)NC3=O)NC(=O)[C@H](CCCCN)NC(=O)[C@H](CC(=O)O)NC(=O)[C@@H]2CCCN2C(=O)[C@H](CC(=O)O)NC(=O)[C@@H]2CCCN2C1=O [compound 846]
IC50 [1, 7]: 2900 nM | IC50 ([2]; use-dependent block, hNav1.5): > 5000 nM | IC50 ([3]; use-dependent block, hNav1.3): 2900 nM

CC[C@H](C)[C@@H]1NC(=O)[C@@H]2CSSC[C@@H]3NC(=O)[C@H](C(C)C)NC(=O)[C@H](CC(C)C)NC(=O)[C@H](CC(N)=O)NC(=O)[C@@H]4CCCN4C(=O)[C@H](CCCNC(=N)N)NC(=O)[C@H](CSSC[C@H](NC(=O)[C@@H](N)CC(=O)O)C(=O)N[C@@H](CC(C)C)C(=O)NCC(=O)N[C@@H](Cc4ccccc4)C(=O)N[C@@H](CCSC)C(=O)N[C@@H](CCCNC(=N)N)C(=O)N[C@@H](CCCCN)C(=O)N2)NC(=O)[C@H](CSSC[C@@H](C(=O)N[C@@H](CCCCN)C(=O)N[C@@H](Cc2ccc(O)cc2)C(=O)N[C@H](C(=O)N[C@@H](Cc2ccccc2)C(=O)N[C@@H](Cc2ccccn2)C(N)=O)C(C)C)NC(=O)[C@H](Cc2c[nH]c4ccccc24)NC(=O)[C@H](CCCCN)NC(=O)[C@H](Cc2c[nH]cn2)NC(=O)[C@H]([C@@H](C)O)NC(=O)[C@H](CCCNC(=N)N)NC(=O)[C@H](CO)NC3=O)NC(=O)[C@H](CCCCN)NC(=O)[C@H](CC(=O)O)NC(=O)[C@H](CC(N)=O)NC(=O)[C@H](CC(=O)O)NC(=O)[C@@H]2CCCN2C1=O [compound 414]
IC50 ([1]; use-dependent, […], read-out: IWQ Use Nav1.7 (μm)): 260 nM | IC50 ([2]; use-dependent, […]): 9290 nM | IC50 ([3]; use-dependent, […]): 630 nM
